Assay results taken from patent publication US20140058103A1, “Inhibitors of PI3K-Delta and Methods of Their Use and Manufacture” (Exelixis, Inc., priority 2010, published 2014).

Biological target: PI3K delta (Homo sapiens, UniProt O00329)
Assay: Luciferase-coupled chemiluminescence kinase assay (ATP consumption, KinaseGlo)
Type: biochemical
Experimental: Kinase activity and compound inhibition were investigated using one or more of the assay formats described below. The ATP concentrations used in the various assays were approximately equal to or less than the KM for each of the respective kinases. Dose-response experiments were performed using an intra-plate dilution scheme with 10 different inhibitor concentrations in a 384-well microtiter plate. IC50 values were calculated by nonlinear regression analysis using the four-parameter equation listed below:
Y=min+(max−min)/(1+(X/IC50)^N) Equation 1
Typically N should approximate unity. Curve fitting was performed using XLFit or ActivityBase.
Kinase activity is measured as the percent of ATP consumed following the kinase reaction using luciferase-luciferin-coupled chemiluminescence. […] Kinase reactions were initiated by combining test compounds, kinase, and ATP in a 20 μL volume (6 μL volume for 1536-well plate). The reaction mixture was incubated at ambient temperature for 2 h. Following the kinase reaction, a 20 μL (or […] for 1536-well plate) aliquot of KinaseGlo (Promega) was added and the chemiluminescence signal measured using an EnVision plate reader (Perkin Elmer).

Chain of PI3K delta (O00329 whole entry): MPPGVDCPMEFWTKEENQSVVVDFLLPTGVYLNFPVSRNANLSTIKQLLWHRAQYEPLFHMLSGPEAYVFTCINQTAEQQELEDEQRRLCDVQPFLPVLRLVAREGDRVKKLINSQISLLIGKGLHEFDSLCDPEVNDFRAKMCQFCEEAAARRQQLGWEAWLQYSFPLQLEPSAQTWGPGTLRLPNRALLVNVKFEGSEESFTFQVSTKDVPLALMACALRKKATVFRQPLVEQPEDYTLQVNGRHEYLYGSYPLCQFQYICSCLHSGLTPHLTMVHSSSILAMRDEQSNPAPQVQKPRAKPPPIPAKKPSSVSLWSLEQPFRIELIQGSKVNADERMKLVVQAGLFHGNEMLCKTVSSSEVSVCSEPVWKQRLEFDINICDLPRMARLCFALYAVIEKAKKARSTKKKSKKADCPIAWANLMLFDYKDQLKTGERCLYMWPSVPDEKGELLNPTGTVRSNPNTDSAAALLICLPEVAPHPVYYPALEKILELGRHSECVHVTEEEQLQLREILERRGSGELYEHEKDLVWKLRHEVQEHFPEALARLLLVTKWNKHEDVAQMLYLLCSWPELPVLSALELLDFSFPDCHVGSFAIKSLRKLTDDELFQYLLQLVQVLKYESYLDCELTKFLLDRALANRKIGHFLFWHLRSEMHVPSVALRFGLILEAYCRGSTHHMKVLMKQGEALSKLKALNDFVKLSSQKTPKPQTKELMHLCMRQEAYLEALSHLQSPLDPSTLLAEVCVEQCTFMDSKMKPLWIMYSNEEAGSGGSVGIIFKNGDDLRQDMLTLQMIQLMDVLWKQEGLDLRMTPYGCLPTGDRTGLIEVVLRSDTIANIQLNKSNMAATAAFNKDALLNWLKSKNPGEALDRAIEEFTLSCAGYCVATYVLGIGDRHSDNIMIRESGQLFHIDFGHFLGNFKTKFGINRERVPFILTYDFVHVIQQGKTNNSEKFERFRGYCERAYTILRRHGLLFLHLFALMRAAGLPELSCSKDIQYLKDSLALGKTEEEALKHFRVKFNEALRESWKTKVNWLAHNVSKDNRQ
Chain of PI3K delta (P27986 whole entry partner): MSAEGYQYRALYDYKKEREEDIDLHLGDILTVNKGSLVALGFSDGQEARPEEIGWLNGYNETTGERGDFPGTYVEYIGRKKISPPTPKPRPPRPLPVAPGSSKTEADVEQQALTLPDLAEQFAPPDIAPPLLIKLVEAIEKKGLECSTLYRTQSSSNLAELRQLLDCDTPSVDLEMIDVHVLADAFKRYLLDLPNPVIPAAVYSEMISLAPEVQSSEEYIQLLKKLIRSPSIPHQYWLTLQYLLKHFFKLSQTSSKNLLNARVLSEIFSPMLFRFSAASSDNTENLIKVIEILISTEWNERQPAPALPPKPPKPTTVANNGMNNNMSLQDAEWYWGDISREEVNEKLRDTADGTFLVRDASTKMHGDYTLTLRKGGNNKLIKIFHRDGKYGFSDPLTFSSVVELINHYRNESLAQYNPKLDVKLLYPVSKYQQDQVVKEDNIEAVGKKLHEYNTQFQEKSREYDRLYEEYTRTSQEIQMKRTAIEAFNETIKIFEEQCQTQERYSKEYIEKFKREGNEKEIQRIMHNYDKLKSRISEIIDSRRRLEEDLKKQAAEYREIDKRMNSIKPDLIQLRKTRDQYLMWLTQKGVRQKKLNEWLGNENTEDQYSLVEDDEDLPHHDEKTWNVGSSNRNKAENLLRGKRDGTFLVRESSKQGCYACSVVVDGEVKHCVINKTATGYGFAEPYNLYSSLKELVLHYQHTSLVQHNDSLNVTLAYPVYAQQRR

| SMILES | IC50 [nM] |
| --- | --- |
| CC(C)CNC(=O)c1nc2c(N3CCC4(CC3)C(=O)Nc3ccccc34)ncnc2n1C [Compound 34, 9-methyl-N-(2-methylpropyl)-6-(2-oxo-1,2-dihydro-1′H-spiro[indole-3,4′-piperidin]-1′-yl)-9H-purine-8-carboxamide] | < 50 |
| Cn1c(C(=O)N2CCCC2)nc2c(N3CCC4(CC3)C(=O)Nc3ccccc34)ncnc21 [Compound 35, 1′-[9-methyl-8-(pyrrolidin-1-ylcarbonyl)-9H-purin-6-yl]spiro[indole-3,4′-piperidin]-2(1H)-one] | 500 to 1500 |
| CCCNC(=O)c1nc2c(N3CCC4(CC3)C(=O)Nc3ccccc34)ncnc2n1C [Compound 36, 9-methyl-6-(2-oxo-1,2-dihydro-1′H-spiro[indole-3,4′-piperidin]-1′-yl)-N-propyl-9H-purine-8-carboxamide] | 50 to 250 |
| CCCCCCNC(=O)c1nc2c(N3CCC4(CC3)C(=O)Nc3ccccc34)ncnc2n1C [Compound 37, N-hexyl-9-methyl-6-(2-oxo-1,2-dihydro-1′H-spiro[indole-3,4′-piperidin]-1′-yl)-9H-purine-8-carboxamide] | 500 to 1500 |
| CC(C)N(C)C(=O)c1nc2c(N3CCC4(CC3)C(=O)Nc3ccccc34)ncnc2n1C [Compound 38, N,9-dimethyl-N-(1-methylethyl)-6-(2-oxo-1,2-dihydro-1′H-spiro[indole-3,4′-piperidin]-1′-yl)-9H-purine-8-carboxamide] | 500 to 1500 |
| CN(CCC#N)C(=O)c1nc2c(N3CCC4(CC3)C(=O)Nc3ccccc34)ncnc2n1C [Compound 39, N-(2-cyanoethyl)-N,9-dimethyl-6-(2-oxo-1,2-dihydro-1′H-spiro[indole-3,4′-piperidin]-1′-yl)-9H-purine-8-carboxamide] | 500 to 1500 |
| CC(C)CCNC(=O)c1nc2c(N3CCC4(CC3)C(=O)Nc3ccccc34)ncnc2n1C [Compound 40, 9-methyl-N-(3-methylbutyl)-6-(2-oxo-1,2-dihydro-1′H-spiro[indole-3,4′-piperidin]-1′-yl)-9H-purine-8-carboxamide] | 50 to 250 |
| Cn1c(C(=O)N2CC(O)C2)nc2c(N3CCC4(CC3)C(=O)Nc3ccccc34)ncnc21 [Compound 41, 1′-{8-[(3-hydroxyazetidin-1-yl)carbonyl]-9-methyl-9H-purin-6-yl}spiro[indole-3,4′-piperidin]-2(1H)-one] | 50 to 250 |
| Cn1c(C(=O)NCc2ccco2)nc2c(N3CCC(n4c(=O)[nH]c5ccccc54)CC3)ncnc21 [Compound 46, N-(furan-2-ylmethyl)-9-methyl-6-[4-(2-oxo-2,3-dihydro-1H-benzimidazol-1-yl)piperidin-1-yl]-9H-purine-8-carboxamide] | 50 to 250 |
| Cn1c(C(=O)NC2CCc3ccccc32)nc2c(N3CCC(n4c(=O)[nH]c5ccccc54)CC3)ncnc21 (stereo not shown) [Compound 47, N-(2,3-dihydro-1H-inden-1-yl)-9-methyl-6-[4-(2-oxo-2,3-dihydro-1H-benzimidazol-1-yl)piperidin-1-yl]-9H-purine-8-carboxamide] | 50 to 250 |
| Cn1c(C(=O)NCc2ccc3c(c2)OCO3)nc2c(N3CCC(n4c(=O)[nH]c5ccccc54)CC3)ncnc21 [Compound 50, N-(1,3-benzodioxol-5-ylmethyl)-9-methyl-6-[4-(2-oxo-2,3-dihydro-1H-benzimidazol-1-yl)piperidin-1-yl]-9H-purine-8-carboxamide] | 250 to 500 |
| Cn1c(C(=O)NCc2ccncc2)nc2c(N3CCC(n4c(=O)[nH]c5ccccc54)CC3)ncnc21 [Compound 52, 9-methyl-6-[4-(2-oxo-2,3-dihydro-1H-benzimidazol-1-yl)piperidin-1-yl]-N-(pyridin-4-ylmethyl)-9H-purine-8-carboxamide] | 50 to 250 |
| CC(NC(=O)c1nc2c(N3CCC(n4c(=O)[nH]c5ccccc54)CC3)ncnc2n1C)c1ccccc1 (stereo not shown) [Compound 53, 9-methyl-6-[4-(2-oxo-2,3-dihydro-1H-benzimidazol-1-yl)piperidin-1-yl]-N-(1-phenylethyl)-9H-purine-8-carboxamide] | 500 to 1500 |
| COc1ccccc1CNC(=O)c1nc2c(N3CCC(n4c(=O)[nH]c5ccccc54)CC3)ncnc2n1C [Compound 56, 9-methyl-N-{[2-(methyloxy)phenyl]methyl}-6-[4-(2-oxo-2,3-dihydro-1H-benzimidazol-1-yl)piperidin-1-yl]-9H-purine-8-carboxamide] | 250 to 500 |
| Cc1ccccc1CNC(=O)c1nc2c(N3CCC(n4c(=O)[nH]c5ccccc54)CC3)ncnc2n1C [Compound 57, 9-methyl-N-[(2-methylphenyl)methyl]-6-[4-(2-oxo-2,3-dihydro-1H-benzimidazol-1-yl)piperidin-1-yl]-9H-purine-8-carboxamide] | 250 to 500 |
| Cn1c(C(=O)NCc2cccc(F)c2)nc2c(N3CCC(n4c(=O)[nH]c5ccccc54)CC3)ncnc21 [Compound 58, N-[(3-fluorophenyl)methyl]-9-methyl-6-[4-(2-oxo-2,3-dihydro-1H-benzimidazol-1-yl)piperidin-1-yl]-9H-purine-8-carboxamide] | 50 to 250 |
| COc1ccc(CNC(=O)c2nc3c(N4CCC(n5c(=O)[nH]c6ccccc65)CC4)ncnc3n2C)cc1 [Compound 59, 9-methyl-N-{[4-(methyloxy)phenyl]methyl}-6-[4-(2-oxo-2,3-dihydro-1H-benzimidazol-1-yl)piperidin-1-yl]-9H-purine-8-carboxamide] | 250 to 500 |
| CC(CNC(=O)c1nc2c(N3CCC(n4c(=O)[nH]c5ccccc54)CC3)ncnc2n1C)c1ccccc1 (stereo not shown) [Compound 61, 9-methyl-6-[4-(2-oxo-2,3-dihydro-1H-benzimidazol-1-yl)piperidin-1-yl]-N-(2-phenylpropyl)-9H-purine-8-carboxamide] | 250 to 500 |
| Cn1c(C(=O)NCCc2ccc(Cl)cc2)nc2c(N3CCC(n4c(=O)[nH]c5ccccc54)CC3)ncnc21 [Compound 63, N-[2-(4-chlorophenyl)ethyl]-9-methyl-6-[4-(2-oxo-2,3-dihydro-1H-benzimidazol-1-yl)piperidin-1-yl]-9H-purine-8-carboxamide] | 500 to 1500 |
| Cc1ccc(CCNC(=O)c2nc3c(N4CCC(n5c(=O)[nH]c6ccccc65)CC4)ncnc3n2C)cc1 [Compound 64, 9-methyl-N-[2-(4-methylphenyl)ethyl]-6-[4-(2-oxo-2,3-dihydro-1H-benzimidazol-1-yl)piperidin-1-yl]-9H-purine-8-carboxamide] | 500 to 1500 |

More lines, now with the values ahead:

| IC50 [nM] | SMILES |
| --- | --- |
| 50 to 250 | Cn1c(C(=O)NCCCCO)nc2c(N3CCC(n4c(=O)[nH]c5ccccc54)CC3)ncnc21 [Compound 42, N-(4-hydroxybutyl)-9-methyl-6-[4-(2-oxo-2,3-dihydro-1H-benzimidazol-1-yl)piperidin-1-yl]-9H-purine-8-carboxamide] |
| 50 to 250 | Cn1c(C(=O)NC2CC2)nc2c(N3CCC(n4c(=O)[nH]c5ccccc54)CC3)ncnc21 [Compound 43, N-cyclopropyl-9-methyl-6-[4-(2-oxo-2,3-dihydro-1H-benzimidazol-1-yl)piperidin-1-yl]-9H-purine-8-carboxamide] |
| 50 to 250 | Cn1c(C(=O)NC2CCC2)nc2c(N3CCC(n4c(=O)[nH]c5ccccc54)CC3)ncnc21 [Compound 44, N-cyclobutyl-9-methyl-6-[4-(2-oxo-2,3-dihydro-1H-benzimidazol-1-yl)piperidin-1-yl]-9H-purine-8-carboxamide] |
| < 50 | CCCCNC(=O)c1nc2c(N3CCC(n4c(=O)[nH]c5ccccc54)CC3)ncnc2n1C [Compound 45, N-butyl-9-methyl-6-[4-(2-oxo-2,3-dihydro-1H-benzimidazol-1-yl)piperidin-1-yl]-9H-purine-8-carboxamide] |
| 50 to 250 | Cn1c(C(=O)NCCCO)nc2c(N3CCC(n4c(=O)[nH]c5ccccc54)CC3)ncnc21 [Compound 48, N-(3-hydroxypropyl)-9-methyl-6-[4-(2-oxo-2,3-dihydro-1H-benzimidazol-1-yl)piperidin-1-yl]-9H-purine-8-carboxamide] |
| 50 to 250 | Cn1c(C(=O)NCc2cccs2)nc2c(N3CCC(n4c(=O)[nH]c5ccccc54)CC3)ncnc21 [Compound 49, 9-methyl-6-[4-(2-oxo-2,3-dihydro-1H-benzimidazol-1-yl)piperidin-1-yl]-N-(2-thienylmethyl)-9H-purine-8-carboxamide] |
| 500 to 1500 | Cn1c(C(=O)NCCc2ccccn2)nc2c(N3CCC(n4c(=O)[nH]c5ccccc54)CC3)ncnc21 [Compound 51, 9-methyl-6-[4-(2-oxo-2,3-dihydro-1H-benzimidazol-1-yl)piperidin-1-yl]-N-(2-pyridin-2-ylethyl)-9H-purine-8-carboxamide] |
| 50 to 250 | CC(C)NC(=O)c1nc2c(N3CCC(n4c(=O)[nH]c5ccccc54)CC3)ncnc2n1C [Compound 54, 9-methyl-N-(1-methylethyl)-6-[4-(2-oxo-2,3-dihydro-1H-benzimidazol-1-yl)piperidin-1-yl]-9H-purine-8-carboxamide] |
| 50 to 250 | Cn1c(C(=O)NCCO)nc2c(N3CCC(n4c(=O)[nH]c5ccccc54)CC3)ncnc21 [Compound 55, N-(2-hydroxyethyl)-9-methyl-6-[4-(2-oxo-2,3-dihydro-1H-benzimidazol-1-yl)piperidin-1-yl]-9H-purine-8-carboxamide] |
| < 50 | Cn1c(C(=O)NCC(F)(F)F)nc2c(N3CCC(n4c(=O)[nH]c5ccccc54)CC3)ncnc21 [Compound 60, 9-methyl-6-[4-(2-oxo-2,3-dihydro-1H-benzimidazol-1-yl)piperidin-1-yl]-N-(2,2,2-trifluoromethyl)-9H-purine-8-carboxamide] |
| 50 to 250 | CCNC(=O)c1nc2c(N3CCC(n4c(=O)[nH]c5ccccc54)CC3)ncnc2n1C [Compound 62, N-ethyl-9-methyl-6-[4-(2-oxo-2,3-dihydro-1H-benzimidazol-1-yl)piperidin-1-yl]-9H-purine-8-carboxamide] |
